Measured values published in US20040024056A1, “Dihydrofuran cyclic tanshinones used in treating hyperammonemia and hepatic encephalopathy” (priority 2001, published 2004).

How the values were obtained:
[1] = test system: healthy male mice; assay: 30 days toxicity test in mouse; type: in vivo; conditions: intragastric, 200 mg/kg day
Description: The drug was continually administrated intragastrically for 30 days with dose of 200 mg/kg day.

[2] = test system: healthy male mice; assay: Acute toxicity test in mouse
From the text: Acute toxicity test in mouse: The animals used in this study were healthy male mice. The drug was administrated intragastrically for 7 days once daily.

[3] = test system: hyperammonemia rats; assay: Blood ammonia reducing experiment (in injection), acetamide-treated rats; type: in vivo, SD rats; conditions: for Blood ammonia concentration / Reduction rate: i.p. for 4 days, sodium glutamate 410 mg/kg
Description: The animals used in this experiment were 50 healthy male SD rats weighing 250-300 g. They were randomly divided into 5 groups, that is, group of normal control, experimental control (acetamide group), sodium glutamate/acetamide group, Dihydortanshinone I/acetamide group and tanshinone IIA/acetamide group. The rats in all those groups except the normal control group were injected intraperitoneally with saline, sodium glutamate injection (with a dose of 410 mg/kg), saline solution of Dihydortanshinone I (containing small amount of surface active agent, with a dose of 10 mg/kg), saline solution of tanshinone IIA (containing small amount of surface active agent, with a dose of 10 mg/kg) respectively. 45 min after the injection, the rats in all those groups except control group were injected intraperitoneally with 5.5 mmol/kg acetamide. Above injections continued for 4 days. In the 4th day, 30 min after the acetamide injection, blood samples of the rats in each group were collected by eyeball removing method immediately, and processed with the anticoagulant EDTA-Na, then the blood ammonia concentration was determined using conventional method. […] The dose of […] in this example and following examples was settled with the reference of its actual clinical dose. The method for determining the blood ammonia concentration in this example and following examples was enzyme-UV method, the instrument used was HITACHI-7170 automatic analyzer, and the kit used was AMMONIA kit.
(§1) With the same experiment method, 90 min after the acetamide injection at the 4th day, blood samples of the rats in each group were collected by eyeball removing method immediately, and processed with the anticoagulant EDTA-Na, then the blood ammonia concentration was determined.
The animals used in this experiment were 40 healthy male SD rats weighing 250-300 g. They were randomly divided into 4 groups, that is, normal control group, experimental control group (acetamide group), sodium glutamate/acetamide group, and Cryptotanshinone/acetamide group. The rats in all those groups except the normal control group were injected intraperitoneally with saline, sodium glutamate injection (with a dose of 410 mg/kg), and saline solution of Cryptotanshinone (containing small amount of surface active agent, with a dose of 10 mg/kg) respectively. 45 min after the injection, the rats in all those groups except the normal control group were injected intraperitoneally with 5.5 mmol/kg acetamide. Above injections continued for 4 days. In the 4th day, 30 min after the acetamide injection, blood samples of the rats in each group were collected by eyeball removing method immediately, and processed with the anticoagulant EDTA-Na, then the blood ammonia concentration was determined.

[4] = test system: hyperammonemia rats; assay: Blood ammonia reducing experiment (in oral), acetamide-treated rats; type: in vivo, SD rats
Description: In the 4th day, 30 min after the acetamide injection, blood samples of the rats in each group were collected by eyeball removing method immediately, and processed with the anticoagulant EDTA-Na, then the blood ammonia concentration was determined.
as §1

[5] = test system: acute hepatocirrhosis hyperammnonemia rat model; assay: Coma and death caused by acute hepatocirrhosis in rats (in injection); type: in vivo, SD rats; conditions: Table 9; i.p. 4 days, Cryptotanshinone 10 mg/kg, sodium glutamate 410 mg/kg; tetrachloro-methane peanut oil; 8.5 mmol/kg acetamide i.p. on 4th day
Description: The animals used in this experiment were 40 healthy male SD rats weighing 250-300 g. They were randomly divided into 4 groups, that is, group of normal control, experimental control (acetamide group), sodium glutamate/acetamide group, and Cryptotanshinone/acetamide group. The rats in all those groups except the normal control group were injected intraperitoneally with saline, sodium glutamate injection (with a dose of 410 mg/kg), and saline solution of Cryptotanshinone (containing small amount of surface active agent, with a dose of 10 mg/kg) respectively. 45 min after the injection, the rats in all those groups except the normal control group were injected intraperitoneally with peanut oil containing 0.1% tetrachloro-methane. Above injections continued for 4 days. In the 4th day, 45 min after the tetrachloride peanut oil injection, the rats in each group (including the normal control group) were injected intraperitoneally with 8.5 mmol/kg acetamide solution. The time from acetamide injection to coma (latent period), from coma to awakening (coma time) and death rate in rats was recorded.

[6] = test system: acute hepatocirrhosis hyperammnonemia rat model; assay: Coma and death caused by acute hepatocirrhosis in rats (in oral); type: in vivo, SD rats; conditions: Table 10; Cryptotanshinone oral 100 mg/kg; tetrachloro-methane peanut oil; 8.5 mmol/kg acetamide i.p. on 4th day
Description: The time from acetamide injection to coma (latent period), from coma to awakening (coma time) and death rate in rats was recorded.

[7] = Table 3, Cryptotanshinone 10 mg/kg, blood 30 min after acetamide on 4th day
[8] = Table 4, Cryptotanshinone 10 mg/kg, blood 90 min after acetamide on 4th day
[9] = Table 7, Cryptotanshinone in oral (intragastric 100 mg/kg), blood 30 min after acetamide on 4th day
[10] = Table 8, Cryptotanshinone in oral (intragastric 100 mg/kg), blood 90 min after acetamide on 4th day
[11] = Table 1, tanshinones 10 mg/kg, blood 30 min after 5.5 mmol/kg acetamide on 4th day
[12] = Table 1, tanshinones 10 mg/kg, blood 30 min after acetamide on 4th day
[13] = Table 2, tanshinones 10 mg/kg, blood 90 min after acetamide on 4th day
[14] = Table 5, tanshinones intragastric 100 mg/kg, acetamide 120 min later, blood 30 min after acetamide on 4th day
[15] = Table 6, tanshinones intragastric 100 mg/kg, blood 90 min after acetamide on 4th day

SMILES	Blood ammonia concentration [3, 7] [µmol/L]	Reduction rate [3, 7] [%]	Blood ammonia concentration [3, 8] [µmol/L]	Reduction rate [3, 8] [%]	Blood ammonia concentration [4, 9] [µmol/L]	Reduction rate [4, 9] [%]	Blood ammonia concentration [4, 10] [µmol/L]	Reduction rate [4, 10] [%]	Coma time (from coma to awakening) [5] [min]	Latent period (time from acetamide injection to coma) [5] [min]	Mortality [5] [%]	Coma time (from coma to awakening) [6] [min]	Blood ammonia concentration [3, 11] [µmol/L]	Reduction rate [3, 12] [%]	Blood ammonia concentration [3, 13] [µmol/L]	Reduction rate [3, 13] [%]	Blood ammonia concentration [4, 14] [µmol/L]	Reduction rate [4, 14] [%]	Blood ammonia concentration [4, 15] [µmol/L]	Reduction rate [4, 15] [%]	further results
C[C@H]1COC2=C1C(=O)C(=O)c1c2ccc2c1CCCC2(C)C [Cryptotanshinone, 1,6,6-trimethyl-1,2,6,7,8,9-hexahydrophenanthrene[1,2-b]furan-10,11-dione]	420	60	110	100	470	54	120	97	65	12	20	75									Death of mice [1]: no death of mice manifested; Growth and development, hematopoietic function, biochemical index [1]: no apparent abnormal change or toxic reaction; Pathology of major organs (anatomical and tissue microscopy inspection) [1]: No pathology change of major organs; LD50 ([2]; mice, intragastric, once daily for 7 days): > 1500 mg/kg; Toxic symptom or death ([2]; mice, intragastric, once daily for 7 days, dose up to 1.5 g/kg): no toxic symptom or death; Toxicity, overall conclusion ([2]; summary statement): safe to use as drug in normal dosage; Latent period (time from acetamide injection to coma) [6]: 12 min; Mortality [6]: 20%
Cc1cccc2c3c(ccc12)C1=C(C(=O)C3=O)C(C)CO1 (centres unmarked) [Dihydortanshinone I, 1,6-dimethyl-1,2-dihydrophenanthrene[1,2-b]furan-10,11-dione]													490	51	125	96	550	44	135	89	
N[C@@H](CCC(=O)[O-])C(=O)[O-].[Na+].[Na+] [Sodium Glutamate]	480	53	110	100	510	49	130	91	75	11	50	90	480	53	120	97	510	49	130	91	Latent period (time from acetamide injection to coma) [6]: 9 min; Mortality [6]: 50%
Cc1coc2c1C(=O)C(=O)c1c-2ccc2c1CCCC2(C)C [Tanshinone IIA]													850	<5	265	<12	865	<4	270	<10	Function to reduce the blood ammonia concentration ([3]; hyperammonemia animal model, summary statement): have no such function
